What was measured:
[1] = test system: barnyardgrass; test: Test C preemergence; type: in vivo, Echinochloa crusgalli; conditions: 0 to 100 scale (0 no effect, 100 complete control)
Outline: (§1)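 Visual injury ratings on a 0–100 scale (100 = complete control) were made against untreated controls 10 days after treatment in the greenhouse. Compounds, formulated with surfactant in non-phytotoxic solvent, were sprayed on soil preemergence or onto one- to two-leaf plants 2–10 cm tall postemergence.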

[2] = test system: blackgrass; test: Test C preemergence; type: in vivo, Alopecurus myosuroides; conditions: 0 to 100 scale (0 no effect, 100 complete control)
Outline: as §1

[3] = test system: corn; test: Test C preemergence; type: in vivo, Zea mays; conditions: preemergence, 0 to 100 scale (0 no effect, 100 complete control)
Outline: as §1

[4] = test system: green foxtail; test: Test C preemergence; type: in vivo, Setaria viridis; conditions: preemergence, 0 to 100 scale (0 no effect, 100 complete control)
Outline: as §1

[5] = test system: kochia; test: Test C preemergence; type: in vivo, Bassia scoparia; conditions: preemergence, 0 to 100 scale (0 no effect, 100 complete control)
Outline: as §1

[6] = test system: oat, wild; test: Test C preemergence; type: in vivo, Avena fatua; conditions: preemergence, 0 to 100 scale (0 no effect, 100 complete control)
Outline: as §1

[7] = test system: pigweed, palmer; test: Test C preemergence; type: in vivo, Amaranthus palmeri; conditions: preemergence, 0 to 100 scale (0 no effect, 100 complete control)
Outline: as §1

[8] = test system: ragweed; test: Test C preemergence; type: in vivo, Ambrosia artemisiifolia; conditions: preemergence, 0 to 100 scale (0 no effect, 100 complete control)
Outline: as §1

[9] = test system: ryegrass, Italian; test: Test C preemergence; type: in vivo, Lolium multiflorum; conditions: preemergence, 0 to 100 scale (0 no effect, 100 complete control)
Outline: as §1

[10] = test system: soybean; test: Test C preemergence; type: in vivo, Glycine max; conditions: preemergence, 0 to 100 scale (0 no effect, 100 complete control)
Outline: as §1

[11] = test system: wheat; test: Test C preemergence; type: in vivo, Triticum aestivum; conditions: preemergence, 0 to 100 scale (0 no effect, 100 complete control)
Outline: as §1

[12] = test system: barnyardgrass; test: Test C postemergence; type: in vivo, Echinochloa crusgalli; conditions: 10 days
Outline: as §1

[13] = test system: blackgrass; test: Test C postemergence; type: in vivo, Alopecurus myosuroides; conditions: 10 days
Outline: as §1

[14] = test system: corn; test: Test C postemergence; type: in vivo, Zea mays; conditions: 10 days
Outline: as §1

[15] = test system: green foxtail; test: Test C postemergence; type: in vivo, Setaria viridis; conditions: 10 days
Outline: as §1

[16] = test system: kochia; test: Test C postemergence; type: in vivo, Bassia scoparia; conditions: 125 g ai/ha, postemergence, 10 days; 0 to 100 scale, 0 no effect, 100 complete control
Outline: as §1

[17] = test system: oat, wild; test: Test C postemergence; type: in vivo, Avena fatua; conditions: 125 g ai/ha, postemergence, 10 days; 0 to 100 scale, 0 no effect, 100 complete control
Outline: as §1

[18] = test system: pigweed, palmer; test: Test C postemergence; type: in vivo, Amaranthus palmeri; conditions: 125 g ai/ha, postemergence, 10 days; 0 to 100 scale, 0 no effect, 100 complete control
Outline: as §1

[19] = test system: ragweed; test: Test C postemergence; type: in vivo, Ambrosia artemisiifolia; conditions: 125 g ai/ha, postemergence, 10 days; 0 to 100 scale, 0 no effect, 100 complete control
Outline: as §1

[20] = test system: ryegrass, Italian; test: Test C postemergence; type: in vivo, Lolium multiflorum; conditions: 125 g ai/ha, postemergence, 10 days; 0 to 100 scale, 0 no effect, 100 complete control
Outline: as §1

[21] = test system: soybean; test: Test C postemergence; type: in vivo, Glycine max; conditions: 125 g ai/ha, postemergence, 10 days; 0 to 100 scale, 0 no effect, 100 complete control
Outline: as §1

[22] = test system: wheat; test: Test C postemergence; type: in vivo, Triticum aestivum; conditions: 125 g ai/ha, postemergence, 10 days; 0 to 100 scale, 0 no effect, 100 complete control
Outline: as §1

[23] = test system: galium; test: Test C postemergence; type: in vivo, Galium aparine; conditions: 10 days
Outline: as §1

[24] = test system: horseweed; test: Test C postemergence; type: in vivo, Erigeron canadensis; conditions: 10 days
Outline: as §1

[25] = test system: barnyardgrass; test: Test D flooded paddy test; type: in vivo, Echinochloa crus-galli; conditions: 250 g ai/ha, applied to paddy water, visual rating after 13 to 14 days, scale 0 to 100 (0 no effect, 100 complete control)
Outline: (§2)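 Post-flood water application at the 2-leaf stage; 3 cm flood depth kept constant; visual control rating 0–100 after 13–14 days greenhouse growth.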

[26] = test system: ducksalad; test: Test D flooded paddy test; type: in vivo, Heteranthera limosa; conditions: 250 g ai/ha, applied to paddy water, visual rating after 13 to 14 days, scale 0 to 100 (0 no effect, 100 complete control)
Outline: as §2

[27] = test system: rice; test: Test D flooded paddy test; type: in vivo, Oryza sativa; conditions: 250 g ai/ha, applied to paddy water, visual rating after 13 to 14 days, scale 0 to 100 (0 no effect, 100 complete control)
Outline: as §2

[28] = test system: sedge, umbrella; test: Test D flooded paddy test; type: in vivo, Cyperus difformis; conditions: 250 g ai/ha, applied to paddy water, visual rating after 13 to 14 days, scale 0 to 100 (0 no effect, 100 complete control)
Outline: as §2

[29] = Preemergence, 500 g ai/ha, visual rating after 10 days
[30] = Test C, preemergence, 125 g ai/ha
[31] = 125 g ai/ha, postemergence, 0 to 100 scale, 0 no effect, 100 complete control
[32] = Postemergence, 500 g ai/ha, visual 0 to 100 scale (0 no effect, 100 complete control)

## Cc1ccc(-n2cnc(C3(C)COC3)n2)cc1C(=O)N1C[C@H](C)Oc2c(Cl)cccc21 [Compound 275]
[1]; [29]
  Plant response rating, Barnyardgrass: 100
[1]; [30]
  Barnyardgrass plant response rating: 100
[2]; [29]
  Plant response rating, Blackgrass: 90
[2]; [30]
  Blackgrass plant response rating: 50
[3]; 500 g ai/ha
  Corn plant response rating: 60
[3]; Test C, 125 g ai/ha
  Corn plant response rating: 30
[4]; 500 g ai/ha
  Foxtail, Green plant response rating: 100
[4]; Test C, 125 g ai/ha
  Foxtail, Green plant response rating: 100
[5]; 500 g ai/ha
  Kochia plant response rating: 100
[5]; Test C, 125 g ai/ha
  Kochia plant response rating: 80
[6]; 500 g ai/ha
  Oat, Wild plant response rating: 90
[6]; Test C, 125 g ai/ha
  Oat, Wild plant response rating: 50
[7]; 500 g ai/ha
  Pigweed, Palmer plant response rating: 100
[7]; Test C, 125 g ai/ha
  Pigweed, Palmer plant response rating: 100
[8]; 500 g ai/ha
  Ragweed plant response rating: 80
[8]; Test C, 125 g ai/ha
  Ragweed plant response rating: 60
[9]; 500 g ai/ha
  Ryegrass, Italian plant response rating: 100
[9]; Test C, 125 g ai/ha
  Ryegrass, Italian plant response rating: 80
[10]; 500 g ai/ha
  Soybean plant response rating: 100
[10]; Test C, 125 g ai/ha
  Soybean plant response rating: 80
[11]; 500 g ai/ha
  Wheat plant response rating: 70
[11]; Test C, 125 g ai/ha
  Wheat plant response rating: 30
[12]; [31]
  Plant response rating, Barnyardgrass: 50
[12]; [32]
  Plant response rating, Barnyardgrass: 90
[13]; [31]
  Plant response rating, Blackgrass: 80
[13]; [32]
  Plant response rating, Blackgrass: 90
[14]; [31]
  Plant response rating, Corn: 10
[14]; [32]
  Plant response rating, Corn: 90
[15]; [31]
  Plant response rating, Foxtail, Green: 70
[15]; [32]
  Plant response rating, Foxtail, Green: 90
[16]
  Plant response rating, Kochia: 80
[17]
  Plant response rating, Oat, Wild: 60
[18]
  Plant response rating, Pigweed, Palmer: 80
[19]
  Plant response rating, Ragweed: 80
[20]
  Plant response rating, Ryegrass, Italian: 90
[21]
  Plant response rating, Soybean: 100
[22]
  Plant response rating, Wheat: 40
[23]; [31]
  Plant response rating, Galium: 100
[23]; [32]
  Plant response rating, Galium: 100
[24]; [31]
  Plant response rating, Horseweed: 60
[24]; [32]
  Plant response rating, Horseweed: 90
[25]
  Plant response rating, Barnyardgrass (Flood): 35
[26]
  Plant response rating, Ducksalad (Flood): 85
[27]
  Plant response rating, Rice (Flood): 10
[28]
  Plant response rating, Sedge, Umbrella (Flood): 95

From patent US20260262643A1, “HERBICIDAL BENZOXAZINES” (FMC CORPORATION, priority 2022, published 2026)
